Results published in patent publication US8071612B2, “6-alkenyl and 6-phenylalkyl substituted 2-quinolinones and 2-quinoxalinones as poly(ADP-ribose) polymerase inhibitors” (Janssen Pharmaceutica, NV, priority 2004, dated 2011).

Each compound was assayed against T1, PARP-1 enzyme (Homo sapiens, UniProt P09874) (assay: In vitro Scintillation Proximity Assay (SPA) for PARP-1 inhibitory activity). Details: nicked DNA activated PARP-1, [3H]-NAD+, biotinylated histones; read-out: In vitro SPA pIC50 (converted).
T1 construct: made in house
Format: biochemical
Description: Compounds of the present invention were tested in an in vitro assay based on SPA technology (proprietary to Amersham Pharmacia Biotech).
In principle, the assay relies upon the well established SPA technology for the detection of poly(ADP-ribosyl)ation of biotinylated target proteins, i.e histones. This ribosylation is induced using nicked DNA activated PARP-1 enzyme and [^3H]-nicotinamide adenine dinucleotide ([^3H]-NAD^+) as ADP-ribosyl donor.
As inducer of PARP-1 enzyme activity, nicked DNA was prepared. For this, 25 mg of DNA (supplier: Sigma) was dissolved in 25 ml DNAse buffer (10 mM Tris-HCl, pH 7.4; 0.5 mg/ml Bovine Serum Albumine (BSA); 5 mM MgCl2.6H2O and 1 mM KCl) to which 50 μl DNAse solution (1 mg/ml in 0.15 M NaCl) was added. After an incubation of 90 min. at 37° C., the reaction was terminated by adding 1.45 g NaCl, followed by a further incubation at 58° C. for 15 min. The reaction mixture was cooled on ice and dialysed at 4° C. for respectively 1.5 and 2 hours against 1.5 l of 0.2 M KCl, and twice against 1.5 l of 0.01 M KCl for 1.5 and 2 h respectively. The mixture was aliquoted and stored at −20° C. Histones (1 mg/ml, type II-A, supplier: Sigma) were biotinylated using the biotinylation kit of Amersham and stored aliquoted at −20° C. A stock solution of 100 mg/ml SPA poly(vinyl toluene) (PVT) beads (supplier: Amersham) was made in PBS. A stock solution of [^3]H-NAD^+ was made by adding 120 μl of [^3H]-NAD^+ (0.1 mCi/ml, supplier: NEN) to 6 ml incubation buffer (50 mM Tris/HCl, pH 8; 0.2 mM DTT; 4 mM MgCl2). A solution of 4 mM NAD^+ (supplier: Roche) was made in incubation buffer (from a 100 mM stock solution in water stored at −20° C.). The PARP-1 enzyme was produced using art known techniques, i.e. cloning and expression of the protein starting from human liver cDNA. Information concerning the used protein sequence of the PARP-1 enzyme including literature references can be found in the Swiss-Prot database under primary accession number P09874. Biotinylated histones and PVT-SPA beads were mixed and pre-incubated for 30 min. at room temperature. PARP-1 enzyme (concentration was lot dependent) was mixed with the nicked DNA and the mixture was pre-incubated for 30 min. at 4° C. Equal parts of this histones/PVT-SPA beads solution and PARP-1 enzyme/DNA solution were mixed and 75 μl of this mixture together with 1 μl of compound in DMSO and 25 μl of [^3H]-NAD^+ was added per well into a 96-well microtiterplate. The final concentrations in the incubation mixture were 2 μg/ml for the biotinylated histones, 2 mg/ml for the PVT-SPA beads, 2 μg/ml for the nicked DNA and between 5-10 μg/ml for the PARP-1 enzyme. After incubation of the mixture for 15 min. at room temperature, the reaction was terminated by adding 100 μl of 4 mM NAD^+ in incubation buffer (final concentration 2 mM) and plates were mixed.
The beads were allowed to sediment for at least 15 min. and plates transferred to a TopCountNXT™ (Packard) for scintillation counting, values were expressed as counts per minute (cpm). For each experiment, controls (containing PARP-1 enzyme and DMSO without compound), a blank incubation (containing DMSO but no PARP-1 enzyme or compound) and samples (containing PARP-1 enzyme and compound dissolved in DMSO) were run in parallel. All compounds tested were dissolved and eventually further diluted in DMSO. In first instance, compounds were tested at a concentration of 10^−5 M or 10^−6M. […] In each test, the blank value was subtracted from both the control and the sample values. The control sample represented maximal PARP-1 enzyme activity. For each sample, the amount of cpm was expressed as a percentage of the mean cpm value of the controls. When appropriate, IC50-values (concentration of the drug, needed to reduce the PARP-1 enzyme activity to 50% of the control) were computed using linear interpolation between the experimental points just above and below the 50% level. […]

T1 sequence (P09874 whole entry): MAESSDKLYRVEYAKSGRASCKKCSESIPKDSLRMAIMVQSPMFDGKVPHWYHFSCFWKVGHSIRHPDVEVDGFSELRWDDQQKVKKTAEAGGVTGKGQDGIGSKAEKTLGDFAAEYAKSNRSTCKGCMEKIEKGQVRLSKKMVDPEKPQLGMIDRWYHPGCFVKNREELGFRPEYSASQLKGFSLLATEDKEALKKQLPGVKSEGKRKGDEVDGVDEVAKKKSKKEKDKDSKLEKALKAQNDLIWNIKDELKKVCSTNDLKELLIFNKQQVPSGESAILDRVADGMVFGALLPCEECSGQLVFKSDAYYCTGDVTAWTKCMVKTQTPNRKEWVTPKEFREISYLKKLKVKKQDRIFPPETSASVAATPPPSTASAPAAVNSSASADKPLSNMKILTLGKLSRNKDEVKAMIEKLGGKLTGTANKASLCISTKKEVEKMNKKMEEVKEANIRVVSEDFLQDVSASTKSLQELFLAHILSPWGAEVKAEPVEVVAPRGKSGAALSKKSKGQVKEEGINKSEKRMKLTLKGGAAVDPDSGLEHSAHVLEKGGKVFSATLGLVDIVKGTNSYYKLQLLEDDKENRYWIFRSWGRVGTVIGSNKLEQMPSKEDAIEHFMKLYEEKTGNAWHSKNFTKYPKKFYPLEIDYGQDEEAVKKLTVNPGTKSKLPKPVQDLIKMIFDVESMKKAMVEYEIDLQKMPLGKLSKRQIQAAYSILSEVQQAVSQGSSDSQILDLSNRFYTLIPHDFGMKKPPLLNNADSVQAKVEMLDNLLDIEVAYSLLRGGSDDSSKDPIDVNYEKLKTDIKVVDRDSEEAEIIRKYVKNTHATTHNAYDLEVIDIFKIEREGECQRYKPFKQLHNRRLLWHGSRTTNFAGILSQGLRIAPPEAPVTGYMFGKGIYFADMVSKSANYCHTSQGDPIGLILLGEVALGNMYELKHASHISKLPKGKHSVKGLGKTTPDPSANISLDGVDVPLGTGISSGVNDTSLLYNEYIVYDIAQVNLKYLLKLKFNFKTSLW

SMILES	IC50 [nM]
CCc1cc2cc(C(c3ccc4c(c3)OCCO4)C3CC[N+](C/C=C/c4ccccc4)(C/C=C/c4ccccc4)CC3)ccc2[nH]c1=O (stereo not drawn) [Compound 15]	119
CCc1cc2cc(C(c3ccc4c(c3)OCCO4)N3CCC(CCN4CCCCC4)CC3)ccc2[nH]c1=O (stereo not drawn) [Compound 31]	21.3
O=c1[nH]c2ccc(C(NCCCN3CCCCC3)c3cccc(C(F)(F)F)c3)cc2c2ccccc12 (stereo not drawn) [Compound 32]	74.6
CCc1cc2cc(C(c3ccc4c(c3)OCCO4)N3CCC(NCCOC)CC3)ccc2[nH]c1=O (stereo not drawn) [Compound 33]	25.7
CCc1cc2cc(C(c3cccc(OC(F)(F)F)c3)N3CCC(NCCOC)CC3)ccc2[nH]c1=O (stereo not drawn) [Compound 34]	525
CCc1cc2cc(C(c3ccc(C(F)(F)F)cc3F)N3CCC(NCCOC)CC3)ccc2[nH]c1=O (stereo not drawn) [Compound 35]	802
CCc1cc2cc(C(c3ccc(OCCCN(C)C)cc3)N3CCC(NCCOC)CC3)ccc2[nH]c1=O (stereo not drawn) [Compound 36]	299
CCc1cc2cc(C(c3ccc4c(c3)OCCO4)N3CCN(CCN4CCCCC4)CC3)ccc2[nH]c1=O (stereo not drawn) [Compound 40]	23.7
CCc1cc2cc(C(c3ccc4c(c3)OCCO4)N3CCN(CC4CCCCC4)CC3)ccc2[nH]c1=O (stereo not drawn) [Compound 41]	122
CCc1cc2cc(C(c3ccc4c(c3)OCO4)n3nc(C4CCNCC4)c4ccc(F)cc43)ccc2[nH]c1=O (stereo not drawn) [Compound 42]	948
CCc1cc2cc(C(c3ccc4c(c3)OCCO4)N3CCN(CCN4CCCCCC4)CC3)ccc2[nH]c1=O (stereo not drawn) [Compound 43]	21.2
CCc1cc2cc(C(NCCN3CCC(C(=O)c4ccc(F)cc4)CC3)c3ccc4c(c3)OCCO4)ccc2[nH]c1=O (stereo not drawn) [Compound 44]	92.3
O=c1[nH]c2ccc(C(NCCN3CCC(c4n[nH]c5cc(F)ccc45)CC3)c3ccc4c(c3)OCCO4)cc2c2ccccc12 (stereo not drawn) [Compound 45]	45.6
CCc1cc2cc(C(c3ccc4c(c3)OCCO4)N3CCC(c4n[nH]c5cc(F)ccc45)CC3)ccc2[nH]c1=O (stereo not drawn) [Compound 46]	405
O=c1[nH]c2ccc(C(NCCN3CCC(c4n[nH]c5cc(F)ccc45)CC3)c3cccc(C(F)(F)F)c3)cc2c2ccccc12 (stereo not drawn) [Compound 47]	516
COCCNC1CCN(C(c2cccc(C(F)(F)F)c2)c2ccc3[nH]c(=O)c4ccccc4c3c2)CC1 (stereo not drawn) [Compound 48]	190
CN(CCCNC(c1cccc(C(F)(F)F)c1)c1ccc2[nH]c(=O)c3ccccc3c2c1)Cc1ccccc1 (stereo not drawn) [Compound 49]	406

The next lines start with the values.

IC50 [nM]	SMILES
678	CCc1nc2cc(C(NCCN3CCC(C(=O)c4ccc(F)cc4)CC3)c3ccccc3)ccc2[nH]c1=O (stereo not drawn) [Compound 50]
459	CCc1nc2cc(C(NCCCN3CCCCC3)c3ccccc3)ccc2[nH]c1=O (stereo not drawn) [Compound 51]
54.6	CCc1cc2cc(C(NCCCN3CCCCC3)c3ccc4c(c3)OCCO4)ccc2[nH]c1=O (stereo not drawn) [Compound 52]
152	CCc1cc2cc(C(NC3CCCN(Cc4ccccc4)C3)c3ccc4c(c3)OCCO4)ccc2[nH]c1=O (stereo not drawn) [Compound 53]
101	CCc1cc2cc(C(c3ccc4c(c3)OCO4)N3CCC(NCCOC)CC3)ccc2[nH]c1=O (stereo not drawn) [Compound 54]
18.4	CCc1cc2cc(C(OCCN(C)C)c3ccc4c(c3)OCCO4)ccc2[nH]c1=O (stereo not drawn) [Compound 55]
511	CCc1nc2cc(C(NCCCN(C)Cc3ccccc3)c3ccccc3)ccc2[nH]c1=O (stereo not drawn) [Compound 56]
33.6	CCc1cc2cc(C(NCCCN(C)Cc3ccccc3)c3ccc4c(c3)OCCO4)ccc2[nH]c1=O (stereo not drawn) [Compound 57]
582	CCc1nc2cc(C(c3ccccc3)N3CCC(NCCOC)CC3)ccc2[nH]c1=O (stereo not drawn) [Compound 58]
217	CCc1cc2cc(C(c3cccc(F)c3)N3CCC(NCCOC)CC3)ccc2[nH]c1=O (stereo not drawn) [Compound 59]
296	CCc1cc2cc(C(c3ccc(Cl)cc3)N3CCN(C)CC3)ccc2[nH]c1=O (stereo not drawn) [Compound 60]
276	CCc1cc2cc(C(c3ccc4ccccc4c3)N3CCC(NCCOC)CC3)ccc2[nH]c1=O (stereo not drawn) [Compound 61]
312	CCc1cc2cc(C(c3ccccc3F)N3CCC(NCCOC)CC3)ccc2[nH]c1=O (stereo not drawn) [Compound 62]
